Results from the NIST ThermoML archive (doi:10.1016/j.jct.2019.04.023).
Numbers after ± are expanded uncertainties.

Test: xn = mol fraction of the nth substance listed
Conditions: 101 kPa, Liquid; for viscosity: Falling or rolling sphere viscometry; for mass density: Vibrating tube method

## CC[N+](CC)=C(N(C)C)N(C)C.O=S(=O)([N-]S(=O)(=O)C(F)(F)F)C(F)(F)F + CCO
293.15 K, x1 = 0.0995
  viscosity: 2.764 ± 0.12 mPa·s
  mass density: 1018.97 ± 2.9 kg/m3
293.15 K, x1 = 0.1987
  viscosity: 5.261 ± 0.23 mPa·s
  mass density: 1136.2 ± 3.2 kg/m3
293.15 K, x1 = 0.299
  viscosity: 9.359 ± 0.41 mPa·s
  mass density: 1207.9 ± 3.2 kg/m3
293.15 K, x1 = 0.3991
  viscosity: 13.81 ± 0.61 mPa·s
  mass density: 1256.11 ± 3.2 kg/m3
293.15 K, x1 = 0.5075
  viscosity: 20.03 ± 0.9 mPa·s
  mass density: 1293.66 ± 3.2 kg/m3
293.15 K, x1 = 0.5956
  viscosity: 26.34 ± 1.1 mPa·s
  mass density: 1316.86 ± 2.9 kg/m3
293.15 K, x1 = 0.7065
  viscosity: 36.42 ± 1.5 mPa·s
  mass density: 1339.41 ± 2.8 kg/m3
293.15 K, x1 = 0.7983
  viscosity: 47.01 ± 1.9 mPa·s
  mass density: 1353.71 ± 2.8 kg/m3
293.15 K, x1 = 0.9106
  viscosity: 62.04 ± 2.5 mPa·s
  mass density: 1367.67 ± 2.8 kg/m3
293.15 K, x1 = 0.951
  viscosity: 70.47 ± 2.9 mPa·s
  mass density: 1372.2 ± 2.8 kg/m3
293.15 K, x1 = 1
  viscosity: 81.02 ± 3.5 mPa·s
  mass density: 1377.86 ± 2.8 kg/m3
298.15 K, x1 = 0.0995
  viscosity: 2.453 ± 0.1 mPa·s
  mass density: 1014.27 ± 2.9 kg/m3
298.15 K, x1 = 0.1987
  viscosity: 4.596 ± 0.2 mPa·s
  mass density: 1131.43 ± 3.2 kg/m3
298.15 K, x1 = 0.299
  viscosity: 8.052 ± 0.35 mPa·s
  mass density: 1203.13 ± 3.2 kg/m3
298.15 K, x1 = 0.3991
  viscosity: 11.82 ± 0.52 mPa·s
  mass density: 1251.35 ± 3.2 kg/m3
298.15 K, x1 = 0.5075
  viscosity: 16.96 ± 0.76 mPa·s
  mass density: 1288.9 ± 3.2 kg/m3
298.15 K, x1 = 0.5956
  viscosity: 22.12 ± 0.96 mPa·s
  mass density: 1312.11 ± 2.9 kg/m3
298.15 K, x1 = 0.7065
  viscosity: 30.22 ± 1.3 mPa·s
  mass density: 1334.68 ± 2.8 kg/m3
298.15 K, x1 = 0.7983
  viscosity: 38.69 ± 1.6 mPa·s
  mass density: 1348.98 ± 2.8 kg/m3
298.15 K, x1 = 0.9106
  viscosity: 50.44 ± 2 mPa·s
  mass density: 1362.96 ± 2.8 kg/m3
298.15 K, x1 = 0.951
  viscosity: 56.94 ± 2.3 mPa·s
  mass density: 1367.5 ± 2.8 kg/m3
298.15 K, x1 = 1
  viscosity: 65.01 ± 2.7 mPa·s
  mass density: 1373.16 ± 2.8 kg/m3
303.15 K, x1 = 0.0995
  viscosity: 2.19 ± 0.091 mPa·s
  mass density: 1009.56 ± 2.9 kg/m3
303.15 K, x1 = 0.1987
  viscosity: 4.044 ± 0.17 mPa·s
  mass density: 1126.67 ± 3.2 kg/m3
303.15 K, x1 = 0.299
  viscosity: 6.99 ± 0.3 mPa·s
  mass density: 1198.38 ± 3.2 kg/m3
303.15 K, x1 = 0.3991
  viscosity: 10.23 ± 0.45 mPa·s
  mass density: 1246.63 ± 3.2 kg/m3
303.15 K, x1 = 0.5075
  viscosity: 14.53 ± 0.65 mPa·s
  mass density: 1284.19 ± 3.2 kg/m3
303.15 K, x1 = 0.5956
  viscosity: 18.83 ± 0.81 mPa·s
  mass density: 1307.39 ± 2.9 kg/m3
303.15 K, x1 = 0.7065
  viscosity: 25.47 ± 1.1 mPa·s
  mass density: 1329.99 ± 2.8 kg/m3
303.15 K, x1 = 0.7983
  viscosity: 32.25 ± 1.3 mPa·s
  mass density: 1344.3 ± 2.7 kg/m3
303.15 K, x1 = 0.9106
  viscosity: 41.52 ± 1.7 mPa·s
  mass density: 1358.3 ± 2.8 kg/m3
303.15 K, x1 = 0.951
  viscosity: 46.62 ± 1.9 mPa·s
  mass density: 1362.85 ± 2.8 kg/m3
303.15 K, x1 = 1
  viscosity: 52.96 ± 2.1 mPa·s
  mass density: 1368.51 ± 2.8 kg/m3
308.15 K, x1 = 0.0995
  viscosity: 1.964 ± 0.081 mPa·s
  mass density: 1004.84 ± 2.9 kg/m3
308.15 K, x1 = 0.1987
  viscosity: 3.583 ± 0.15 mPa·s
  mass density: 1121.91 ± 3.2 kg/m3
308.15 K, x1 = 0.299
  viscosity: 6.102 ± 0.27 mPa·s
  mass density: 1193.62 ± 3.2 kg/m3
308.15 K, x1 = 0.3991
  viscosity: 8.914 ± 0.39 mPa·s
  mass density: 1241.9 ± 3.2 kg/m3
308.15 K, x1 = 0.5075
  viscosity: 12.57 ± 0.56 mPa·s
  mass density: 1279.48 ± 3.2 kg/m3
308.15 K, x1 = 0.5956
  viscosity: 16.19 ± 0.7 mPa·s
  mass density: 1302.7 ± 2.8 kg/m3
308.15 K, x1 = 0.7065
  viscosity: 21.69 ± 0.91 mPa·s
  mass density: 1325.33 ± 2.8 kg/m3
308.15 K, x1 = 0.7983
  viscosity: 27.29 ± 1.1 mPa·s
  mass density: 1339.66 ± 2.7 kg/m3
308.15 K, x1 = 0.9106
  viscosity: 34.83 ± 1.4 mPa·s
  mass density: 1353.68 ± 2.8 kg/m3
308.15 K, x1 = 0.951
  viscosity: 38.87 ± 1.6 mPa·s
  mass density: 1358.24 ± 2.8 kg/m3
308.15 K, x1 = 1
  viscosity: 43.84 ± 1.8 mPa·s
  mass density: 1363.9 ± 2.8 kg/m3
313.15 K, x1 = 0.0995
  viscosity: 1.773 ± 0.073 mPa·s
  mass density: 1000.1 ± 2.9 kg/m3
313.15 K, x1 = 0.1987
  viscosity: 3.195 ± 0.14 mPa·s
  mass density: 1117.13 ± 3.2 kg/m3
313.15 K, x1 = 0.299
  viscosity: 5.364 ± 0.23 mPa·s
  mass density: 1188.87 ± 3.2 kg/m3
313.15 K, x1 = 0.3991
  viscosity: 7.841 ± 0.34 mPa·s
  mass density: 1237.18 ± 3.2 kg/m3
313.15 K, x1 = 0.5075
  viscosity: 10.98 ± 0.48 mPa·s
  mass density: 1274.79 ± 3.2 kg/m3
313.15 K, x1 = 0.5956
  viscosity: 14.08 ± 0.6 mPa·s
  mass density: 1298.03 ± 2.8 kg/m3
313.15 K, x1 = 0.7065
  viscosity: 18.73 ± 0.78 mPa·s
  mass density: 1320.7 ± 2.7 kg/m3
313.15 K, x1 = 0.7983
  viscosity: 23.34 ± 0.96 mPa·s
  mass density: 1335.04 ± 2.7 kg/m3
313.15 K, x1 = 0.9106
  viscosity: 29.46 ± 1.2 mPa·s
  mass density: 1349.09 ± 2.7 kg/m3
313.15 K, x1 = 0.951
  viscosity: 32.73 ± 1.3 mPa·s
  mass density: 1353.66 ± 2.8 kg/m3
313.15 K, x1 = 1
  viscosity: 36.79 ± 1.5 mPa·s
  mass density: 1359.32 ± 2.8 kg/m3
318.15 K, x1 = 0.0995
  viscosity: 1.606 ± 0.067 mPa·s
  mass density: 995.32 ± 2.9 kg/m3
318.15 K, x1 = 0.1987
  viscosity: 2.864 ± 0.12 mPa·s
  mass density: 1112.33 ± 3.2 kg/m3
318.15 K, x1 = 0.299
  viscosity: 4.758 ± 0.21 mPa·s
  mass density: 1184.11 ± 3.2 kg/m3
318.15 K, x1 = 0.3991
  viscosity: 6.927 ± 0.3 mPa·s
  mass density: 1232.46 ± 3.2 kg/m3
318.15 K, x1 = 0.5075
  viscosity: 9.662 ± 0.43 mPa·s
  mass density: 1270.1 ± 3.1 kg/m3
318.15 K, x1 = 0.5956
  viscosity: 12.36 ± 0.53 mPa·s
  mass density: 1293.36 ± 2.8 kg/m3
318.15 K, x1 = 0.7065
  viscosity: 16.3 ± 0.68 mPa·s
  mass density: 1316.07 ± 2.7 kg/m3
318.15 K, x1 = 0.7983
  viscosity: 20.16 ± 0.83 mPa·s
  mass density: 1330.44 ± 2.7 kg/m3
318.15 K, x1 = 0.9106
  viscosity: 25.22 ± 1 mPa·s
  mass density: 1344.52 ± 2.7 kg/m3
318.15 K, x1 = 0.951
  viscosity: 27.9 ± 1.1 mPa·s
  mass density: 1349.1 ± 2.7 kg/m3
318.15 K, x1 = 1
  viscosity: 31.25 ± 1.3 mPa·s
  mass density: 1354.76 ± 2.8 kg/m3
323.15 K, x1 = 0.0995
  viscosity: 1.463 ± 0.061 mPa·s
  mass density: 990.51 ± 2.9 kg/m3
323.15 K, x1 = 0.1987
  viscosity: 2.585 ± 0.11 mPa·s
  mass density: 1107.51 ± 3.2 kg/m3
323.15 K, x1 = 0.299
  viscosity: 4.253 ± 0.18 mPa·s
  mass density: 1179.33 ± 3.2 kg/m3
323.15 K, x1 = 0.3991
  viscosity: 6.158 ± 0.27 mPa·s
  mass density: 1227.73 ± 3.2 kg/m3
323.15 K, x1 = 0.5075
  viscosity: 8.555 ± 0.38 mPa·s
  mass density: 1265.41 ± 3.1 kg/m3
323.15 K, x1 = 0.5956
  viscosity: 10.91 ± 0.47 mPa·s
  mass density: 1288.7 ± 2.8 kg/m3
323.15 K, x1 = 0.7065
  viscosity: 14.31 ± 0.6 mPa·s
  mass density: 1311.45 ± 2.7 kg/m3
323.15 K, x1 = 0.7983
  viscosity: 17.59 ± 0.72 mPa·s
  mass density: 1325.84 ± 2.7 kg/m3
323.15 K, x1 = 0.9106
  viscosity: 21.82 ± 0.89 mPa·s
  mass density: 1339.96 ± 2.7 kg/m3
323.15 K, x1 = 0.951
  viscosity: 24.03 ± 0.98 mPa·s
  mass density: 1344.55 ± 2.7 kg/m3
323.15 K, x1 = 1
  viscosity: 26.79 ± 1.1 mPa·s
  mass density: 1350.21 ± 2.7 kg/m3
